Tested on: C. albicans
Test: Screening II: Candida growth in Lactobacillus cell-free filtrate (LCF), visual turbidity scale 5 to 0
Assay type: cell-based, Candida albicans
Details: acids 50 mM, salts 0.3%; 20 hours at 37° C.
Description: Clinical isolates of Candida albicans and Candida glabrata were used as test strains. These were isolated from the vagina of women with vaginal candidiasis and from healthy females. Suspensions of lactobacilli grown in dMRSs broth (MRS broth without addition of sodium acetate) were centrifuged and sterile filtered. The filtrate is henceforth called Lactobacillus Cell-free Filtrate, LCF. A specified volume was transferred to wells of a micro titre plate and was let to air dry and thereafter resuspended in sterile distilled water to a concentration three times higher and transferred to 96-wells micro titre plates. Candida was added to all vials (three isolates of C. albicans and C. glabrata, respectively, were used). The inhibition was evaluated by visual observation of turbidity and graduated by two persons using a template on a scale from five to zero. […] The plates were incubated for 20 hours at 37° C. and the candida growth in the vials was visually evaluated and graduated from five to zero. […] The inhibition was evaluated by visual observation of turbidity and graduated by two persons using a template on a scale from five to zero. […] The plates were incubated for 20 hours at 37° C. and the candida growth in the wells was visually evaluated and graduated from five to zero.

`CCC(=O)[O-].[Na+]` [Sodium propionate] was tested, and the “effect of acids and acid salts on the growth of C. albicans” value was “most extended effect”.
With `CCC(=O)O` [propionic acid] the “effect of acids and acid salts on the growth of C. albicans” value was “most extended effect”.

Reference: patent publication US8222020B2, “Biologically pure strain of Lactobacillus fermentum, strain Ess-1” (SCA Hygiene Products AB, priority 2006, dated 2012)
